From patent US10934310B2, “Inhibitors of Bruton's tyrosine kinase and method of their use” (JANSSEN PHARMACEUTICA NV, priority 2015, dated 2021) come the findings set out here.

Chain of unphosphorylated-BTK kinase domain (UP-BTK), GST-tagged human BTK (389-659aa) (Q06187 389-659): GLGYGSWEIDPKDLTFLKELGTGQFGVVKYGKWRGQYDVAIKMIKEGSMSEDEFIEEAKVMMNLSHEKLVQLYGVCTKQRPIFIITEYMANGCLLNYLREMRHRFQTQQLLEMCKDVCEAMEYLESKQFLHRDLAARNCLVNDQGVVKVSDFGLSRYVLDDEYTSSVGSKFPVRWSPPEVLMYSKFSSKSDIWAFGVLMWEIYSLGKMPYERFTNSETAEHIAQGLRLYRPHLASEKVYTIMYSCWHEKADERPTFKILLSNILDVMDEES

The target of the first test is unphosphorylated-BTK kinase domain (UP-BTK), GST-tagged human BTK (389-659aa) (Homo sapiens (Human), UniProt Q06187). Description: BTK Kinase Lanthascreen Binding Assay. To be noted: Lanthascreen binding, 60 minutes incubation; pIC50 = negative log of the IC50 in molar. As for the experimental part:
BTK Kinase Lanthascreen Binding Assay:
A BTK kinase lanthascreen binding assay monitors compound binding to unphosphorylated-BTK kinase domain (UP-BTK), by competing with a fluorescent labeled tracer. […] Data were analyzed using Xlfit™ version 5.3 from ID Business Solutions (Guildford), Microsoft Excel add-in. pIC50 refers to the negative log of the IC50 in molar.
For orientation: TR-FRET usually uses a lanthanide donor and a delayed reading to cut background.
Consider `C=CC(=O)N[C@H]1CCC[C@H]1NC(=O)c1sc2nccc3c2c1NC(=O)N3c1cnc(Oc2ccccc2)nc1` [Example 310, N-((1R,2S)-2-Acrylamidocyclopentyl)-4-oxo-5-(2-phenoxypyrimidin-5-yl)-4,5-dihydro-3H-1-thia-3,5,8-triazaacenaphthylene-2-carboxamide], for which the “BTK_I_binding pIC50” value is recorded as 8.04.

In the case of `C=CC(=O)N[C@@H]1CCC[C@H]1NC(=O)c1sc2nccc3c2c1NC(=O)N3c1cnc(Oc2ccccc2)cn1` [Example 311, N-((1R,2R)-2-Acrylamidocyclopentyl)-4-oxo-5-(5-phenoxypyrazin-2-yl)-4,5-dihydro-3H-1-thia-3,5,8-triazaacenaphthylene-2-carboxamide], the “BTK_I_binding pIC50” value amounted to 7.57.

As to `C=CC(=O)N[C@@H]1CCC[C@H]1NC(=O)c1sc2nccc3c2c1NC(=O)N3c1cnc(Oc2ccccc2)nc1` [Example 314, N-((1R,2R)-2-Acrylamidocyclopentyl)-4-oxo-5-(2-phenoxypyrimidin-5-yl)-4,5-dihydro-3H-1-thia-3,5,8-triazaacenaphthylene-2-carboxamide], the “BTK_I_binding pIC50” value is 7.14.

For the compound `C=CC(=O)N[C@H]1CCC[C@H]1NC(=O)c1sc2nccc3c2c1NC(=O)N3c1ccnc(-c2cccnc2)c1` [Example 317, 5-([2,3′-Bipyridin]-4-yl)-N-((1R,2S)-2-acrylamidocyclopentyl)-4-oxo-4,5-dihydro-3H-1-thia-3,5,8-triazaacenaphthylene-2-carboxamide], the “BTK_I_binding pIC50” value is 7.74.

Regarding `C=CC(=O)N[C@@H]1CC[C@H](NC(=O)c2sc3nccc4c3c2NC(=O)N4c2cnc(Oc3ccccc3)nc2)C1` [Example 319, N-((1S,3R)-3-Acrylamidocyclopentyl)-4-oxo-5-(2-phenoxypyrimidin-5-yl)-4,5-dihydro-3H-1-thia-3,5,8-triazaacenaphthylene-2-carboxamide], the “BTK_I_binding pIC50” value is 7.21.

For the compound `C=CC(=O)N[C@H]1CCC[C@H]1NC(=O)c1sc2nccc3c2c1NC(=O)N3c1cc(-c2ccccc2)cnn1` [Example 320, N-((1R,2S)-2-Acrylamidocyclopentyl)-4-oxo-5-(5-phenylpyridazin-3-yl)-4,5-dihydro-3H-1-thia-3,5,8-triazaacenaphthylene-2-carboxamide], the “BTK_I_binding pIC50” value was 7.23.

On to `C=CC(=O)N[C@@H]1CCC[C@H]1NC(=O)c1sc2nccc3c2c1NC(=O)N3c1cccc(-c2cccnc2)c1` [Example 324, N-((1R,2R)-2-Acrylamidocyclopentyl)-4-oxo-5-(3-(pyridin-3-yl)phenyl)-4,5-dihydro-3H-1-thia-3,5,8-triazaacenaphthylene-2-carboxamide], for which the “BTK_I_binding pIC50” value is 6.90.

For the compound `C=CC(=O)N[C@H]1CCC[C@H]1NC(=O)c1sc2nccc3c2c1NC(=O)N3c1ccnc(-c2ccccn2)c1` [Example 325, 5-([2,2′-Bipyridin]-4-yl)-N-((1R,2S)-2-acrylamidocyclopentyl)-4-oxo-4,5-dihydro-3H-1-thia-3,5,8-triazaacenaphthylene-2-carboxamide], the “BTK_I_binding pIC50” value turned out to be 7.07.

Regarding `C=CC(=O)N[C@@H]1CCC[C@H]1NC(=O)c1sc2nccc3c2c1NC(=O)N3c1ccnc(-c2cccnc2)c1` [Example 326, 5-([2,3′-Bipyridin]-4-yl)-N-((1R,2R)-2-acrylamidocyclopentyl)-4-oxo-4,5-dihydro-3H-1-thia-3,5,8-triazaacenaphthylene-2-carboxamide], the “BTK_I_binding pIC50” value is 6.72.

In the case of `C=CC(=O)N[C@@H]1CCC[C@H]1NC(=O)c1sc2nccc3c2c1NC(=O)N3c1cccc(-c2ccccn2)c1` [Example 327, N-((1R,2R)-2-Acrylamidocyclopentyl)-4-oxo-5-(3-(pyridin-2-yl)phenyl)-4,5-dihydro-3H-1-thia-3,5,8-triazaacenaphthylene-2-carboxamide], the “BTK_I_binding pIC50” value was 6.98.

Turning to `C=CC(=O)N[C@H]1CCC[C@H]1NC(=O)c1sc2nccc3c2c1NC(=O)N3c1cnc(NC(C)C)cc1C` [Example 330, N-((1R,2S)-2-Acrylamidocyclopentyl)-5-(6-(isopropylamino)-4-methylpyridin-3-yl)-4-oxo-4,5-dihydro-3H-1-thia-3,5,8-triazaacenaphthylene-2-carboxamide], the “BTK_I_binding pIC50” value worked out at 6.69.

With `CC(C)c1cc(N2C(=O)Nc3c(C(=O)N[C@@H]4CCC[C@H]4N)sc4nccc2c34)ccn1` [Example 336, N-((1R,2R)-2-Aminocyclopentyl)-5-(2-isopropylpyridin-4-yl)-4-oxo-4,5-dihydro-3H-1-thia-3,5,8-triazaacenaphthylene-2-carboxamide], the “BTK_I_binding pIC50” value is given as 6.01.

For the compound `C=CC(=O)N[C@@H]1CCC[C@H]1NC(=O)c1sc2nccc3c2c1NC(=O)N3c1ccnc(C(C)C)c1` [Example 337, N-((1R,2R)-2-Acrylamidocyclopentyl)-5-(2-isopropylpyridin-4-yl)-4-oxo-4,5-dihydro-3H-1-thia-3,5,8-triazaacenaphthylene-2-carboxamide], the “BTK_I_binding pIC50” value is listed as 6.42.

For the compound `C=CC(=O)N[C@@H]1CCCC[C@H]1NC(=O)c1sc2nccc3c2c1NC(=O)N3c1cnc(Oc2ccccc2)nc1` [Example 338, N-((1R,2R)-2-Acrylamidocyclohexyl)-4-oxo-5-(2-phenoxypyrimidin-5-yl)-4,5-dihydro-3H-1-thia-3,5,8-triazaacenaphthylene-2-carboxamide], the “BTK_I_binding pIC50” value came to 6.39.

On to `C=CC(=O)N[C@@H]1CCC[C@H]1NC(=O)c1sc2nccc3c2c1NC(=O)N3c1ccnc(-c2ccccn2)c1` [Example 342, 5-([2,2′-Bipyridin]-4-yl)-N-((1R,2R)-2-acrylamidocyclopentyl)-4-oxo-4,5-dihydro-3H-1-thia-3,5,8-triazaacenaphthylene-2-carboxamide], for which the “BTK_I_binding pIC50” value is listed as 6.12.

Consider `C=CC(=O)N[C@H]1CCC[C@H]1NC(=O)c1sc2nccc3c2c1NC(=O)N3c1ccc(Oc2cccnc2C)cc1C` [Example 367, N-((1R,2S)-2-acrylamidocyclopentyl)-5-(2-methyl-4-((2-methylpyridin-3-yl)oxy)phenyl)-4-oxo-4,5-dihydro-3H-1-thia-3,5,8-triazaacenaphthylene-2-carboxamide], for which the “BTK_I_binding pIC50” value came out at 7.54.

`C=CC(=O)N[C@H]1CCC[C@H]1NC(=O)c1sc2nccc3c2c1NC(=O)N3c1ccc(Oc2cccc(C)n2)cc1C` [Example 368, N-((1R,2S)-2-acrylamidocyclopentyl)-5-(2-methyl-4-((6-methylpyridin-2-yl)oxy)phenyl)-4-oxo-4,5-dihydro-3H-1-thia-3,5,8-triazaacenaphthylene-2-carboxamide]: the “BTK_I_binding pIC50” value stood at 8.13.

The same test, now with this note: read-out: BTK_I_binding pIC50 (converted).
In the case of `N[C@H]1CCC[C@H]1NC(=O)c1sc2nccc3c2c1NC(=O)N3c1cc(-c2ccccc2)cnn1` [Example 349, N-((1R,2S)-2-Aminocyclopentyl)-4-oxo-5-(5-phenylpyridazin-3-yl)-4,5-dihydro-3H-1-thia-3,5,8-triazaacenaphthylene-2-carboxamide], the IC50 was > 1 µM.

With `C=CC(=O)N[C@@H]1CCC[C@H](NC(=O)c2sc3nccc4c3c2NC(=O)N4c2ccnc(-c3ccccc3)c2)C1` [Example 351, N-((1S,3R)-3-Acrylamidocyclohexyl)-4-oxo-5-(2-phenylpyridin-4-yl)-4,5-dihydro-3H-1-thia-3,5,8-triazaacenaphthylene-2-carboxamide], the IC50 was > 1 µM.
